Laboratory results: patent publication US20190231761A1, “COMPOSITIONS AND METHODS FOR TARGETING FRUCTOSE ENZYMES AND TRANSPORTERS FOR THE TREATMENT OF CANCER” (Duke University, priority 2018, published 2019)

What was measured:
LV-HCT116 cells = test: intravenous injection of liver-derived HCT116 (LV-HCT116), tumors in the liver; assay type: in vivo, NOD/SCID mice; settings: 5-Fluorouracil 100 mg/kg, Oxaliplatin 6 mg/kg, intraperitoneal twice a week; compared with ALDOB knockdown or fructose-restricted diet
Text: FIG. 41A is representative IVIS luciferase in vivo images of mice with intravenous injection of liver-derived HCT116 cells with or without ALDOB knockdown. FIG. 41B are bright field and fluorescent (mCherry) images of livers of mice with intravenous injection of liver-derived HCT116 cells with or without ALDOB knockdown. FIG. 41C is a graph showing quantification of liver metastasis of mice with intravenous injection of liver-derived HCT116 cells with or without ALDOB knockdown, and show knockdown of ALDOB suppressed CRC liver lesions. FIG. 41D are representative IVIS luciferase in vivo images of mice with intravenous injection of liver-derived HCT116 with fructose diet. FIG. 41E are bright field and fluorescent (mCherry) images of livers of mice with intravenous injection of liver-derived HCT116 with fructose diet. FIG. 41F is a graph of quantification of liver metastasis of mice with intravenous injection of liver-derived HCT116 with fructose diet that show mice fed with fructose-restricted diet suppressed liver lesions. […] FIG. 41I is a graph showing quantification of liver lesions. […] Error bars denote SEM of 3 mice per group. **, p<0.01; ***, p<0.001. p-value was calculated based on one-way ANOVA. […]

CRC cells = test: KHK knockdown in CRC cells transplanted into mouse cecum, liver metastasis; assay type: in vivo; settings: IVIS luciferase images, quantification of liver metastasis
Protocol: FIG. 42A-42B illustrates KHK knockdown suppresses liver metastasis. FIG. 42A is a Western blot showing KHK knockdown efficiency. FIG. 42B are representative IVIS luciferase in vivo images, bright field and fluorescent images of livers, and quantification of liver metastasis. Error bars denote SEM of 5 mice per group. p-values were calculated based on one-way ANOVA. ***, p<0.001.
To determine if silencing ketohexokinase (KHK) can suppress liver metastases, KHK was knocked down using shRNA nucleic acid sequence SEQ ID NO:4 (FIG. 42A) in CRC cells and the cells were transplanted into the mouse cecum using the methods described in Example 6 with respect to ALDOB knockdown.

CRC119 cells = test: cecum injection model, CRC liver metastasis, CRC119 cells with ALDOB knockdown; assay type: in vivo, NOD/SCID mice; settings: cecum-injected CRC119 cells with ALDOB knockdown; control vectors 5 out of 5 mice
Protocol: (§1) Tumor-bearing mice were treated with 5-Fluorouracil (Sigma, St. Louis, Mo.) at a dose of 100 mg/kg, Oxaliplatin (Sigma, St. Louis, Mo.) at a dose of 6 mg/kg, 2-deoxyglucose (Sigma, St. Louis, Mo.) at a dose of 500 mg/kg or normal saline as vehicle control through intraperitoneal route twice a week. 2×10^6 cells carrying a luciferase/mCherry or luciferase/GFP vector were injected into the mice for cecum injection model and intrahepatic injection model. 5×10^5 cells were injected for intravenous injection. Luciferase signal was tracked in vivo using the IVIS luciferase imaging system 200 (Xenogen) for tumor development. Liver metastases were evaluated based on mCherry signals by an OV100 microscope (Olympus) after scarifying the mice.
(§2) To assess the contribution of ALDOB to fructose metabolism, ALDOB was knocked down in CRC cells using two shRNAs and validated the knockdown efficiencies by Western blot (FIG. 23). ALDOB lentiviral shRNA constructs were purchased from Sigma Mission shRNA dataset. The lentiviral vectors were co-transfected with helper plasmids into 293T cells. The lentiviral vectors were transfected into 293T cells. The viral supernatant was collected 48 hours after transfection and was used to infect CRC cells. […]

CRC57 cells = test: cecum injection model, CRC liver metastasis, CRC57 cells with ALDOB knockdown; assay type: in vivo, NOD/SCID mice; settings: cecum-injected CRC57 cells with ALDOB knockdown; control vectors 5 out of 5 mice
Protocol: as §1, §2

HCT116 cells = test: cecum injection model, CRC liver metastasis, HCT116 cells with ALDOB knockdown; assay type: in vivo, NOD/SCID mice; settings: cecum-injected HCT116 cells with ALDOB knockdown; control vectors 5 out of 5 mice
Protocol: as §1, §2

O=c1[nH]cc(F)c(=O)[nH]1 [5-Fluorouracil]
benefit in terms of tumor suppression or survival (LV-HCT116 cells): less benefit

O=C1[O][Pt]2([NH][C@@H]3CCCC[C@H]3[NH]2)[O]C1=O [Oxaliplatin]
benefit in terms of tumor suppression or survival (LV-HCT116 cells): less benefit

SEQ ID NO:4: shRNA against human fructokinase (KHK) (CCGGCCTAAGGAGGACTCGGAGATACTCGAGTATCTCCGAGTCCTCCTTAGGTTTTTG)
metastatic CRC growth in the liver (CRC cells): significantly suppressed

shRNA1: shRNA against human ALDOB, Sigma Mission lentiviral construct (CCGGCTCAGAAATTGCCCAGAGCATCTCGAGATGCTCTGGGCAATTTCTGAGTTTTTG)
mice that developed detectable liver metastases (CRC119 cells): 2 out of 5 mice | mice that developed detectable liver metastases (CRC57 cells): 2 out of 5 mice | mice that developed detectable liver metastases (HCT116 cells): 2 out of 5 mice

shRNA2: shRNA against human ALDOB, Sigma Mission lentiviral construct (CCGGGTGGGAATCAAGTTAGACCAACTCGAGTTGGTCTAACTTGATTCCCACTTTTTG)
mice that developed detectable liver metastases (CRC119 cells): 1 out of 5 mice | mice that developed detectable liver metastases (CRC57 cells): 2 out of 5 mice | mice that developed detectable liver metastases (HCT116 cells): 2 out of 5 mice
